Target: T1, chimeric human H3 receptor (Homo sapiens, UniProt Q9Y5N1, E19D)
T1 construct: made in house; host or cells: Sf9 insect cells (baculovirus infection); P2 membrane preparation
Experiment: Chimeric human H3 receptor screening GTP binding assay (inhibition of histamine-stimulated GTP-gamma35S binding, Example 8)
Assay type: biochemical
Details: 1 h; Table II, "+" in the column headed Ki; assay of Example 8; read-out: percent inhibition of agonist-induced GTP-gammaS binding to H3
Method in brief: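 Sf9 membranes co-expressing the chimeric receptor and a heterotrimeric G-protein (35 μg protein) in Tris pH 7.4 buffer with 10 μM GDP; compound at 4 μM plus 1 μM histamine, 125 pM GTP-gamma35S, 60 min at room temperature. Filter-bound radioactivity read; non-specific binding defined with 10 uM GTP-gammaS; percent inhibition of histamine signal.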

T1 sequence (Q9Y5N1 with tags, fused parts or gaps E19D): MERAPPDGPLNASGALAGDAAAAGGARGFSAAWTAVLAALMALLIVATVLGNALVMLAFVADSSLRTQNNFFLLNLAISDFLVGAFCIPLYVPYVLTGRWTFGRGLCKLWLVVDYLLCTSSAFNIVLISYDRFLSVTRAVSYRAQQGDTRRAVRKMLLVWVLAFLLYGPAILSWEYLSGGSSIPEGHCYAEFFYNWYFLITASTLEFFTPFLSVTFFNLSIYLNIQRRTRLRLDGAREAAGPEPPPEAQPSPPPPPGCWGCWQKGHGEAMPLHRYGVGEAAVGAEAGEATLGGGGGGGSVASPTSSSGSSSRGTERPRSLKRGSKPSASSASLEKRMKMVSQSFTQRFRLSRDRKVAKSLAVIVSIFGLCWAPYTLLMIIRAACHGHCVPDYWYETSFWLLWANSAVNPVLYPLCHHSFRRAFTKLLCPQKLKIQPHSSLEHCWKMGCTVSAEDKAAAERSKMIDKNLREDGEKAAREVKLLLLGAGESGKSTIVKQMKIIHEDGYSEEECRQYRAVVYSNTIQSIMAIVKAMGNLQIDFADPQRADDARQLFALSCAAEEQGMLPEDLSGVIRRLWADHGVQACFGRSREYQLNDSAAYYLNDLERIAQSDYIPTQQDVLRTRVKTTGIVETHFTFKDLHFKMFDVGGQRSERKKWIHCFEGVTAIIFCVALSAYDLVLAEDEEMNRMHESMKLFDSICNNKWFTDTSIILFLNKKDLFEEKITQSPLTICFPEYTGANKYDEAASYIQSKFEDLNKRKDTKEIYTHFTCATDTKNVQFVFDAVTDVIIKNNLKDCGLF

inhibition at 4 µM | SMILES
> 90% | COc1ccc(OC)c(C(=O)N2CCN(CC(=O)N3CCN(C4CCC4)CC3)CC2)c1 [Compound 686, 1-cyclobutyl-4-{[4-(2,5-dimethoxybenzoyl)piperazin-1-yl]acetyl}piperazine]
> 90% | Cc1cc(C(=O)N2CCN(CC(=O)N3CCN(C4CCC4)CC3)CC2)c(C)o1 [Compound 688, 1-cyclobutyl-4-{[4-(2,5-dimethyl-3-furoyl)piperazin-1-yl]acetyl}piperazine]
> 90% | Cc1ccc(C)c(C(=O)N2CCN(CC(=O)N3CCN(C4CCC4)CC3)CC2)c1 [Compound 689, 1-cyclobutyl-4-{[4-(2,5-dimethylbenzoyl)piperazin-1-yl]acetyl}piperazine]
> 90% | O=C(CN1CCN(C(=O)c2c(Cl)cccc2Cl)CC1)N1CCN(C2CCC2)CC1 [Compound 691]
> 90% | O=C(CN1CCN(C(=O)c2cc(Cl)nc(Cl)c2)CC1)N1CCN(C2CCC2)CC1 [Compound 692]
> 90% | O=C(CN1CCN(C(=O)c2c(F)cccc2F)CC1)N1CCN(C2CCC2)CC1 [Compound 693, 1-cyclobutyl-4-{[4-(2,6-difluorobenzoyl)piperazin-1-yl]acetyl}piperazine]
> 90% | COc1cccc(OC)c1C(=O)N1CCN(CC(=O)N2CCN(C3CCC3)CC2)CC1 [Compound 694, 1-cyclobutyl-4-{[4-(2,6-dimethoxybenzoyl)piperazin-1-yl]acetyl}piperazine]
> 90% | Cc1cccc(C)c1C(=O)N1CCN(CC(=O)N2CCN(C3CCC3)CC2)CC1 [Compound 696, 1-cyclobutyl-4-{[4-(2,6-dimethylbenzoyl)piperazin-1-yl]acetyl}piperazine]
> 90% | CCOc1ccccc1C(=O)N1CCN(CC(=O)N2CCN(C3CCC3)CC2)CC1 [Compound 699, 1-cyclobutyl-4-{[4-(2-ethoxybenzoyl)piperazin-1-yl]acetyl}piperazine]
> 90% | CCC(CC)(C(=O)N1CCN(CC(=O)N2CCN(C3CCC3)CC2)CC1)c1ccccc1 [Compound 702, 1-cyclobutyl-4-{[4-(2-ethyl-2-phenylbutanoyl)piperazin-1-yl]acetyl}piperazine]
> 90% | Cc1cccc(C(=O)N2CCN(CC(=O)N3CCN(C4CCC4)CC3)CC2)c1F [Compound 703, 1-cyclobutyl-4-{[4-(2-fluoro-3-methylbenzoyl)piperazin-1-yl]acetyl}piperazine]
> 90% | O=C(CN1CCN(C(=O)c2ccccc2F)CC1)N1CCN(C2CCC2)CC1 [Compound 706, 1-cyclobutyl-4-{[4-(2-fluorobenzoyl)piperazin-1-yl]acetyl}piperazine]
> 90% | COc1ccccc1C(=O)N1CCN(CC(=O)N2CCN(C3CCC3)CC2)CC1 [Compound 711, 1-cyclobutyl-4-{[4-(2-methoxybenzoyl)piperazin-1-yl]acetyl}piperazine]
> 90% | Cc1oc(-c2ccccc2)cc1C(=O)N1CCN(CC(=O)N2CCN(C3CCC3)CC2)CC1 [Compound 713, 1-cyclobutyl-4-{[4-(2-methyl-5-phenyl-3-furoyl)piperazin-1-yl]acetyl}piperazine]
> 90% | Cc1ccccc1C(=O)N1CCN(CC(=O)N2CCN(C3CCC3)CC2)CC1 [Compound 714, 1-cyclobutyl-4-{[4-(2-methylbenzoyl)piperazin-1-yl]acetyl}piperazine]
> 90% | O=C(CN1CCN(C(=O)c2ccc3ccccc3c2)CC1)N1CCN(C2CCC2)CC1 [Compound 716, 1-cyclobutyl-4-{[4-(2-naphthoyl)piperazin-1-yl]acetyl}piperazine]
> 90% | O=C(CN1CCN(C(=O)c2ccccc2Oc2ccccc2)CC1)N1CCN(C2CCC2)CC1 [Compound 718, 1-cyclobutyl-4-{[4-(2-phenoxybenzoyl)piperazin-1-yl]acetyl}piperazine]
> 90% | CCC(C(=O)N1CCN(CC(=O)N2CCN(C3CCC3)CC2)CC1)c1ccccc1 (stereo not shown) [Compound 721, 1-cyclobutyl-4-{[4-(2-phenylbutanoyl)piperazin-1-yl]acetyl}piperazine]
> 90% | CCCOc1ccccc1C(=O)N1CCN(CC(=O)N2CCN(C3CCC3)CC2)CC1 [Compound 722, 1-cyclobutyl-4-{[4-(2-propoxybenzoyl)piperazin-1-yl]acetyl}piperazine]
> 90% | O=C(CN1CCN(C(=O)c2cccs2)CC1)N1CCN(C2CCC2)CC1 [Compound 723, 1-cyclobutyl-4-{[4-(2-thienylcarbonyl)piperazin-1-yl]acetyl}piperazine]
> 90% | COc1cc(C(=O)N2CCN(CC(=O)N3CCN(C4CCC4)CC3)CC2)cc(OC)c1OC [Compound 724, 1-cyclobutyl-4-{[4-(3,4,5-trimethoxybenzoyl)piperazin-1-yl]acetyl}piperazine]
> 90% | O=C(CN1CCN(C(=O)c2ccc(Cl)c(Cl)c2)CC1)N1CCN(C2CCC2)CC1 [Compound 726, 1-cyclobutyl-4-{[4-(3,4-dichlorobenzoyl)piperazin-1-yl]acetyl}piperazine]
> 90% | CCOc1ccc(C(=O)N2CCN(CC(=O)N3CCN(C4CCC4)CC3)CC2)cc1OCC [Compound 728, 1-cyclobutyl-4-{[4-(3,4-diethoxybenzoyl)piperazin-1-yl]acetyl}piperazine]
> 90% | O=C(CN1CCN(C(=O)c2ccc(F)c(F)c2)CC1)N1CCN(C2CCC2)CC1 [Compound 729, 1-cyclobutyl-4-{[4-(3,4-difluorobenzoyl)piperazin-1-yl]acetyl}piperazine]
> 90% | COc1ccc(C(=O)N2CCN(CC(=O)N3CCN(C4CCC4)CC3)CC2)cc1OC [Compound 731, 1-cyclobutyl-4-{[4-(3,4-dimethoxybenzoyl)piperazin-1-yl]acetyl}piperazine]
> 90% | Cc1ccc(C(=O)N2CCN(CC(=O)N3CCN(C4CCC4)CC3)CC2)cc1C [Compound 734, 1-cyclobutyl-4-{[4-(3,4-dimethylbenzoyl)piperazin-1-yl]acetyl}piperazine]
> 90% | COc1c(Cl)cc(Cl)c(OC)c1C(=O)N1CCN(CC(=O)N2CCN(C3CCC3)CC2)CC1 [Compound 737, 1-cyclobutyl-4-{[4-(3,5-dichloro-2,6-dimethoxybenzoyl)piperazin-1-yl]acetyl}piperazine]
> 90% | O=C(CN1CCN(C(=O)c2cc(Cl)cc(Cl)c2)CC1)N1CCN(C2CCC2)CC1 [Compound 738, 1-cyclobutyl-4-{[4-(3,5-dichlorobenzoyl)piperazin-1-yl]acetyl}piperazine]
> 90% | COc1cc(OC)cc(C(=O)N2CCN(CC(=O)N3CCN(C4CCC4)CC3)CC2)c1 [Compound 741, 1-cyclobutyl-4-{[4-(3,5-dimethoxybenzoyl)piperazin-1-yl]acetyl}piperazine]
> 90% | Cc1cc(C)cc(C(=O)N2CCN(CC(=O)N3CCN(C4CCC4)CC3)CC2)c1 [Compound 742, 1-cyclobutyl-4-{[4-(3,5-dimethylbenzoyl)piperazin-1-yl]acetyl}piperazine]

SMILES | inhibition at 4 µM
O=C(Cc1ccc2ccccc2c1)N1CCN(CC(=O)N2CCN(C3CCC3)CC2)CC1 [Compound 717, 1-cyclobutyl-4-{[4-(2-naphthylacetyl)piperazin-1-yl]acetyl}piperazine] | > 90%

— US7851474B2, “Dipiperazinyl ketones and related analogues” (Neurogen Corporation, priority 2005, dated 2010)
